The source of these data is PMC2685009, “Identification and Characterization of Inhibitors of Human Apurinic/apyrimidinic Endonuclease APE1” (PLoS ONE, 2009).

Where two headings read alike, the source gives them in different places.

The target of one assay is T1, E. coli EndoIV (Escherichia coli, UniProt P0A6C1).
T1 construct: made in house
The experiment in a line: E. coli Endonuclease IV (EndoIV) profiling assay. The format is biochemical. On the procedure: EndoIV enzyme and substrate (same as that used with APE1) optimization tests were initially performed at a 40 µL final volume in a 384-well format. Reaction concentrations of 2 nM EndoIV and 50 nM DNA substrate were selected for subsequent experiments. For running the assay in 1536-well format, the same protocol as described for APE1 above was followed.

Assay [1] deals with T2, APE1 (Homo sapiens, UniProt P27695).
T2 construct: made in house
The experiment in a line: qHTS fluorogenic AP site incision assay (TAMRA/BHQ-2 red substrate, 1536-well). In kind it is biochemical. On the procedure:
Recombinant human APE1 and E. coli EndoIV were purified as previously described. Deoxyoligonucleotides containing a tetrahydrofuran (THF) AP site analog, carboxytetramethyl rhodamine (TAMRA), or Black Hole Quencher-2 (BHQ-2), as appropriate (see Figure 1), were purchased from Biosearch Technologies, Inc., (Novato, CA). To create double-stranded DNA substrates, equal volumes of 200 µM solutions of the respective strands in reaction buffer were mixed and incubated at 95°C for 5 min. The annealing mixture was allowed to cool gradually to room temperature. Annealing and assay experiments were performed in the following buffer: 50 mM Tris pH 7.5, 25 mM NaCl, 2 mM MgCl2, 1 mM DTT, 0.01% Tween-20.
Initial optimizations were carried out in 384-well format at a 40 µL total reaction volume. Briefly, 30 µL of APE1 were pipetted into the plate and incubated at room temperature for 10 min; subsequently, 10 µL of substrate were added to start the reaction. The final assay concentrations of the enzyme and substrate were 0.75 nM and 50 nM, respectively. Kinetic fluorescence data were collected on a ViewLux high-throughput CCD imager (Perkin Elmer, Waltham, MA) equipped with standard FITC (excitation filter 480 nm and emission filter 530 nm) or BODIPY (excitation filter 525 nm and emission filter 598 nm) optics.
Three µl of reagents (buffer in columns 3 and 4 as negative control and APE1 in columns 1, 2, 5–48) were dispensed into a 1536-well plate. Compounds (DMSO solutions) and control (DMSO only) (23 nL) were transferred via Kalypsys pintool equipped with 1536-pin array. The plate was incubated for 15 min at room temperature, and then 1 µL of substrate (50 nM final concentration) was added to start the reaction. Library plates were screened from the lowest to highest concentration.
Screening data were corrected and normalized, and concentration–effect relationships were derived by using in-house developed, publicly available algorithms (http://www.ncgc.nih.gov/pub/openhts/curvefit/). Percent activity was computed after normalization against the uninhibited, or neutral, control (64 wells, entire columns 1 and 2) and the no-enzyme, or 100% inhibited, control (64 wells, entire columns 3 and 4), respectively. A four parameter Hill equation was fitted to the concentration-response data by minimizing the residual error between the modeled and observed responses.
On the technique in general: In qHTS, concentration-response curves come from the screen itself.

Assay [2] deals with HeLa cells. Kind of assay: Cell-based colony survival assay with MMS. Conditions: HeLa colony formation, 0.25 mM MMS, 1 or 5 µM inhibitor. Also on record: species or system human. The method, then:
To measure colony survival, HeLa cells were plated in 6-well plates 12–20 hr prior to treatment. Cells were treated as follows: (i) exposed only to control medium, (ii) exposed to 0.25 mM MMS alone for 1 hr, (iii) exposed to 1 or 5 µM of the indicated inhibitor compound alone for 4 hr, or (iii) exposed to inhibitor compound alone for 3 hr and then with MMS for an additional 1 hr at 37°C. Following treatment, cells were washed once with 1× PBS and incubated in regular maintenance media (DMEM, 10% FBS) at 37°C for 10–15 days. Colonies formed were fixed in methanol, stained in methylene blue (Sigma), and counted to determine percent survival relative to the untreated controls.

The target in assay [3] is unlabeled double-stranded DNA substrate. Kind of assay: ThO dye-displacement assay (DNA binding). The note with it: for IC50: 50 nM DNA, 250 nM ThO; for ThO displacement (in words): LOPAC dose-response profiling.
In assay [4] the target is T2, APE1. Kind of assay: Radiotracer (32P, gel-based) incision assay. In kind it is biochemical. The note with it: for Gel: inhibition detected or not in radiotracer incision assay: APE1, 32P-labeled THF substrate.
The test system of assay [5] is AP site cleavage activity of HEK 293T whole cell extract. Kind of assay: Whole cell extract AP endonuclease activity assay (HEK 293T). In kind it is biochemical, human. Conditions: inhibitor at 100 µM. On the procedure: (§1) The radiotracer assay was performed essentially as described. In brief, prioritized candidate inhibitor compounds from the qHTS assay were incubated at various concentrations (100 µM data shown) with APE1 (100 pg) at room temperature for 15 min in 25 mM Tris pH 7.5, 25 mM NaCl, 1 mM MgCl2, 1 mM DTT and 0.01% Tween-20. At that time, 0.5 pmol ^32P-radiolabeled THF-containing 34 mer double-stranded DNA substrate was added. Incision reactions were then carried out immediately at 37°C for 10 min in a final volume of 10 µL. After the addition of an equal volume of stop buffer (0.05% bromophenol blue and xylene cynol, 20 mM EDTA, 95% formamide), the radiolabeled substrate and product were separated on a standard polyacrylamide denaturing gel and quantified by phosphorimager analysis.
(§2) HEK 293T or HeLa cells – maintained in DMEM with 10% fetal bovine serum and 1% Penicillin-Streptomycin – were harvested, washed with 1× PBS, re-suspended in cold 222 mM KCl, incubated on ice for 30 min, and clarified by centrifugation at 12,000×g for 15 min at 4°C [23]. The supernatant (whole cell extract) was retained, the protein concentration determined using the Bio-Rad Bradford reagent, and aliquots were stored at −80°C. AP endonuclease activity assays were performed with or without candidate inhibitor compounds as described above, except 60 ng HEK 293T or 80 ng of HeLa whole cell extract was used.

Assay [6] deals with HeLa cells. Kind of assay: AP site measurement in chromosomal DNA. In kind it is cell-based, human. On the procedure:
HeLa cells were treated as above, except only at 5 µM inhibitor where indicated. Following exposure, chromosomal DNA was isolated and steady-state AP site levels were measured using the DNA Damage Quantification Kit from Dojindo Molecular Technologies, Inc. (Gaithersburg, MD) as previously described.

Assay [7] has as its system AP site cleavage activity of HeLa whole cell extract. Kind of assay: Whole cell extract AP endonuclease activity assay (HeLa). In kind it is biochemical, human. Conditions: inhibitor at 100 µM. The method, then:
as §1, §2

[8] abbreviates: 2 nM EndoIV, 50 nM substrate, read-out: Endo IV IC50 (E. coli EndoIV profiling).
The mark [9] stands for this setting: 50 nM substrate, 0.75 nM APE1, read-out: qHTS IC50 (primary screen, APE1).
Setting [10] is: range of inhibitor concentrations, data not shown, read-out: approximate IC50 in radiotracer assay.

T2 sequence (P27695 whole entry): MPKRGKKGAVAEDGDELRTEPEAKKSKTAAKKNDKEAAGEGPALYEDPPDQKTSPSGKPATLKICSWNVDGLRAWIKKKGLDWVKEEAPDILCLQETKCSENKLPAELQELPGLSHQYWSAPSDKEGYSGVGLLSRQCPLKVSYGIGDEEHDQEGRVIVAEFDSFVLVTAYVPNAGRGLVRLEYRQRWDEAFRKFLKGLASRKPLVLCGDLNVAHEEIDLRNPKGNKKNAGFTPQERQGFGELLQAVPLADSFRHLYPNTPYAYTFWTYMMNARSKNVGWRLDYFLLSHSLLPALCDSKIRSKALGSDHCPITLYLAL

Regarding `NC(Cc1cc(O)c(O)cc1O)C(=O)O` (racemic) [6-hydroxy-DL DOPA, 6-hydroxy-DL-DOPA], the IC50 was 10 µM against E. coli EndoIV, 0.11 µM at APE1 [1], 7.9 µM in assay [3] and less than 0.5 µM at APE1 [4]. Also, the “activity against EndoIV compared with APE1 (in words)” value at E. coli EndoIV was “completely inactive or weakly active”. Further, in the assay on HeLa cells [2], the “percent cell killing, MMS plus inhibitor relative to alkylator or inhibitor alone” value was “greater than additive increase”. Further, the “Gel: inhibition detected or not in radiotracer incision assay” value (from here on “Gel: inhibition detected or not”) at APE1 [4] is on record as “Yes”. For the same molecule, the “inhibition of total AP site cleavage activity” value in assay [5] and in assay [7] was “complete inhibition” throughout. The “AP site damage, inhibitor alone” value in the assay with HeLa cells [6] (5 µM inhibitor alone, relative to control cells) is “increased AP site damage relative to the control cells”. Besides, the “AP site damage, inhibitor plus MMS” value in the assay with HeLa cells [6] (5 µM inhibitor plus MMS) was “potentiated the genotoxic potential of MMS”.

For the molecule `Cc1nc(N=Nc2cc(S(=O)(=O)O)c3cc([N+](=O)[O-])cc(S(=O)(=O)O)c3c2)c(COP(=O)(O)O)c(C=O)c1O` [PPNDS tetrasodium], the IC50 on E. coli EndoIV (setting [8]) is 16 µM; on APE1 [1] (setting [9]) it was 2.8 µM; in assay [3], 10 µM; on APE1 [4] (setting [10]), more than 50 µM. Moreover, the “Gel: inhibition detected or not” value at APE1 [4] is listed as “No”.

On to `N#C/C(=C\c1ccc(O)c(O)c1)C(=O)c1ccc(O)c(O)c1` [Tyrphostin AG 538], for which the “activity against EndoIV compared with APE1 (in words)” value at E. coli EndoIV is on record as “similarly potent against each endonuclease”. Also, the IC50 on E. coli EndoIV (setting [8]) is 0.28 µM; at APE1 [1] (setting [9]) it was 0.28 µM; in assay [3], 20 µM; at APE1 [4] (setting [10]), 0.5 to 2 µM. Also, the “ThO displacement (in words)” value in assay [3] is “weak or no displacement activity”. Moreover, the “Gel: inhibition detected or not” value at APE1 [4] is recorded as “Yes”. Further, the “inhibition of total AP site cleavage activity” value in assay [5] and in assay [7] was “mild inhibition” throughout.

For `O=C(O)C1=CC(=C(c2ccc(O)c(C(=O)O)c2)c2ccc(O)c(C(=O)O)c2)C=CC1=O` [aurintricarboxylic acid], the “activity against EndoIV compared with APE1 (in words)” value at E. coli EndoIV was “completely inactive or weakly active”. Moreover, the IC50 on E. coli EndoIV (setting [8]) was 25 µM; on APE1 [1] (setting [9]), 0.055 µM; in assay [3] it was 1.3 µM. Moreover, at APE1 [1], the “APE1 inhibition in fluorogenic assay (in words)” value is recorded as “low nanomolar range”. Moreover, the “Gel: inhibition detected or not” value on APE1 [4] is “Yes”.

With `CO/N=C(\C(=O)N[C@@H]1C(=O)N2C(C(=O)O)=C(CSc3nc(=O)c(=O)[nH]n3C)CS[C@H]12)c1csc(N)n1` [ceftriaxone sodium], the concentration for half-maximal inhibition (IC50) at E. coli EndoIV (setting [8]) is 11 µM; on APE1 [1] (setting [9]), 2.2 µM; in assay [3] it was more than 57 µM; at APE1 [4] (setting [10]), more than 50 µM. Further, on APE1 [4], the “Gel: inhibition detected or not” value was “No”.

In the case of `CC(=O)OCC1=C(C(=O)O)N2C(=O)[C@@H](NC(=O)CSc3ccncc3)[C@H]2SC1` [cephapirin sodium], the “activity against EndoIV compared with APE1 (in words)” value on E. coli EndoIV is “similarly potent against each endonuclease”. Also, the concentration for half-maximal inhibition (IC50) is 16 µM at E. coli EndoIV (setting [8]), 8.9 µM at APE1 [1] (setting [9]), more than 57 µM in assay [3] and more than 50 µM on APE1 [4] (setting [10]). For the same molecule, the “Gel: inhibition detected or not” value on APE1 [4] is reported as “No”.

For `Cn1cc(NC(=O)c2cc(NC(=O)c3cc(NC=O)cn3C)cn2C)cc1C(=O)NCCC(=N)N` [distamycin], the “ThO displacement (in words)” value in assay [3] is listed as “strong displacement activity”.

As for `COc1cccc2c1C(=O)c1c(O)c3c(c(O)c1C2=O)C[C@@](O)(C(=O)CO)C[C@@H]3O[C@H]1C[C@H](N)[C@H](O)[C@H](C)O1` [doxorubicin], the “ThO displacement (in words)” value in assay [3] was “strong ThO displacement profiles”.

Regarding `CC(=O)[C@]1(O)Cc2c(O)c3c(c(O)c2[C@@H](O[C@H]2C[C@H](N)[C@H](O)[C@H](C)O2)C1)C(=O)c1ccccc1C3=O` [idarubicin], the “ThO displacement (in words)” value in assay [3] is reported as “strong ThO displacement profiles”.

As to `CN(N=O)c1ccc(O)c(O)c1` [methyl 3,4-dephostatin, methyl-3,4-dephostatin], the “activity against EndoIV compared with APE1 (in words)” value at E. coli EndoIV was “completely inactive or weakly active”. For the same molecule, the 50% inhibitory concentration (IC50) at E. coli EndoIV (setting [8]) is 8.9 µM; at APE1 [1] (setting [9]), 0.5 µM; in assay [3] it was 14 µM; at APE1 [4] (setting [10]) it was 0.5 to 2 µM. On APE1 [4], the “Gel: inhibition detected or not” value was “Yes”. For the same molecule, the “inhibition of total AP site cleavage activity” value in assay [5] and in assay [7] was “no effect” each time.

Consider `O=C1c2c(O)ccc(O)c2C(=O)c2c(NCCNCCO)ccc(NCCNCCO)c21` [mitoxantrone], for which, on E. coli EndoIV, the “activity against EndoIV compared with APE1 (in words)” value was “similarly potent against each endonuclease”. The IC50 on E. coli EndoIV (setting [8]) was 2 µM; on APE1 [1] (setting [9]) it was 2 µM; in assay [3], 0.35 µM; at APE1 [4] (setting [10]), less than 0.5 µM. Also, the “ThO displacement (in words)” value in assay [3] is listed as “positive”. Further, on APE1 [4], the “Gel: inhibition detected or not” value is recorded as “Yes”.

For the molecule `C=C/C(C)=C/[C@@]1(C)SC(=O)C(C)=C1O` [thiolactomycin], at E. coli EndoIV, the “activity against EndoIV compared with APE1 (in words)” value is “completely inactive or weakly active”. Also, the IC50 at E. coli EndoIV (setting [8]) was 20 µM; at APE1 [1] (setting [9]), 1 µM; in assay [3] it was more than 57 µM; on APE1 [4] (setting [10]), 0.5 to 2 µM. Moreover, the “ThO displacement (in words)” value in assay [3] is “weak or no displacement activity”; in assay [3] (listed as Thiolactomycin), “does not affect ThO displacement”. Also, the “Gel: inhibition detected or not” value on APE1 [4] was “Yes”. Further, the “inhibition of total AP site cleavage activity” value in assay [5] and in assay [7] was “no effect” in each case.

For orientation: IC50 means the concentration that gives 50% inhibition.
